Reference: patent US4002530A, “6-Aminopenicillanic acid derivative” (Recherche et Industrie Therapeutiques (R.I.T.), priority 1975, dated 1977)
≈ marks a conversion by molar mass, not a printed value. Structures can show the parent of a compound that is named as a salt. Where two headings read alike, the source gives them in different places.

Key:
Corynebacterium xerosis = assay: broth dilution test, minimum inhibitory concentration; assay type: cell-based; settings: about 20 hours at 35° C, tested as monoammonium salt
Shigella sonnei = assay: as above; assay type: cell-based; settings: about 20 hours at 35° C, tested as monoammonium salt
Description: (§1) Antibiotic RIT D-2214 has been tested in form of the mono ammonium salt in position 3 of the penam nucleus and, for that reason, is herein below charcterized as this monoammonium salt.
(§2) The inhibitory levels were determined by the broth dilution test. A series of tubes containing varied concentrations of the monoammonium salt of antibiotic RIT D-2214 were inoculated with the test organism to determine the minimum concentration of the ammonium salt of antibiotic RIT D-2214 in mcg/ml. in the broth substrate which inhibited organism growth for a period of about twenty hours at 35° C.

Staphylococcus aureus = assay: as above; assay type: cell-based; settings: about 20 hours at 35° C, tested as monoammonium salt
Description: as §1, §2

[1] = test system: Staphylococcus aureus Pen.resist.; assay: as above; assay type: cell-based; settings: penicillin resistant, about 20 hours at 35° C, tested as monoammonium salt
Bacillus subtilis = assay: as above; assay type: cell-based; settings: about 20 hours at 35° C, tested as monoammonium salt
Escherichia coli = assay: as above; assay type: cell-based; settings: read-out: Minimum Inhibitory concentration
E. coli Pen. resistant = assay: as above; assay type: cell-based; settings: Escherichia coli, penicillin resistant, about 20 hours at 35° C, tested as monoammonium salt
Alcaligenes faecalis = assay: as above; assay type: cell-based; settings: about 20 hours at 35° C, tested as monoammonium salt
Aerobacter aerogenes = assay: as above; assay type: cell-based; settings: Klebsiella aerogenes, read-out: Minimum Inhibitory concentration
Klebsiella pneumoniae = assay: as above; assay type: cell-based; settings: about 20 hours at 35° C, tested as monoammonium salt
Salmonella paratyphi = assay: as above; assay type: cell-based; settings: Salmonella enterica, 20 h, read-out: Minimum Inhibitory concentration
Salmonella meleagridis = assay: as above; assay type: cell-based; settings: about 20 hours at 35° C, tested as monoammonium salt
Salmonella typhi = assay: as above; assay type: cell-based; settings: Salmonella enterica, 20 h, read-out: Minimum Inhibitory concentration
Salmonella typhimurium = assay: as above; assay type: cell-based; settings: Salmonella enterica, about 20 hours at 35° C, tested as monoammonium salt
Salmonella panama = assay: as above; assay type: cell-based; settings: Salmonella enterica, about 20 hours at 35° C, tested as monoammonium salt
Salmonella anatum = assay: as above; assay type: cell-based; settings: Salmonella enterica, about 20 hours at 35° C, tested as monoammonium salt
Proteus mirabilis = assay: as above; assay type: cell-based; settings: read-out: Minimum Inhibitory concentration
Proteus morganii = assay: as above; assay type: cell-based; settings: Morganella morganii, about 20 hours at 35° C, tested as monoammonium salt
Vibrio el tor = assay: as above; assay type: cell-based; settings: about 20 hours at 35° C, tested as monoammonium salt
Brucella abortus = assay: microbe, parasite or virus in culture; assay type: cell-based; settings: 20 h, read-out: Minimum Inhibitory concentration
[2] = test system: Bordetella bronchiseptica; assay: broth dilution test, minimum inhibitory concentration; assay type: cell-based; settings: about 20 hours at 35° C, tested as monoammonium salt
Pseudomonas aeruginosa = assay: as above; assay type: cell-based; settings: about 20 hours at 35° C, tested as monoammonium salt
Escherichia coli 47 = assay: mice protection test; assay type: in vivo; settings: Escherichia coli, 47, sc, 72 h; s.c., one hour after intravenous infection, observed 3 days; read-out: ED50 (total dose required to protect 50% of the infected mice)
Description: (§3) Comparative trials with ampicillin were performed in vivo according to the usual mice protection test procedure. The test compound was administered in graded dilutions to mice either subcutaneously (s.c.) in water or orally (or.) in combination with calcium carbonate one hour after intravenous infection with uniformly lethal doses of the test organism.

Escherichia coli 9 = assay: mice protection test; assay type: in vivo; settings: Escherichia coli, 9, sc, 72 h; s.c., one hour after intravenous infection, observed 3 days; read-out: ED50 (total dose required to protect 50% of the infected mice)
Description: as §3

[3] = test system: Klebsiella pneumoniae SK&F 4200; assay: mice protection test; assay type: in vivo; settings: 72 h, one hour after intravenous infection, observed 3 days, read-out: ED50 (total dose required to protect 50% of the infected mice)
Description: as §3

Proteus mirabilis 11 = assay: mice protection test; assay type: in vivo; settings: Proteus mirabilis, 11, sc, 72 h; s.c., one hour after intravenous infection, observed 3 days; read-out: ED50 (total dose required to protect 50% of the infected mice)
Description: as §3

[4] = test system: Salmonella brandebourg 22; assay: mice protection test; assay type: in vivo; settings: Salmonella, 22, sc, 72 h; s.c., one hour after intravenous infection, observed 3 days; read-out: ED50 (total dose required to protect 50% of the infected mice)
Description: as §3

[5] = test system: Salmonella enteritidis 24; assay: mice protection test; assay type: in vivo; settings: Salmonella enterica, sc, 72 h, s.c., one hour after intravenous infection, observed 3 days, read-out: ED50 (total dose required to protect 50% of the infected mice)
Description: as §3

Salmonella panama 20 = assay: mice protection test; assay type: in vivo; settings: Salmonella enterica, 20, sc, 72 h; s.c., one hour after intravenous infection, observed 3 days; read-out: ED50 (total dose required to protect 50% of the infected mice)
Description: as §3

Shigella flexneri 25 = assay: mice protection test; assay type: in vivo; settings: Shigella flexneri, 25, sc, 72 h; s.c., one hour after intravenous infection, observed 3 days; read-out: ED50 (total dose required to protect 50% of the infected mice)
Description: as §3

[6] = test system: Staphylococcus aureus 663; assay: mice protection test; assay type: in vivo; settings: Staphylococcus aureus, 663, sc, 72 h; s.c., one hour after intravenous infection, observed 3 days; read-out: ED50 (total dose required to protect 50% of the infected mice)
Description: as §3

[7] = test system: Vibrio parahaemoliticus 194; assay: mice protection test; assay type: in vivo; settings: Vibrio, 194, 72 h; oral with calcium carbonate, one hour after intravenous infection, observed 3 days; read-out: ED50 (total dose required to protect 50% of the infected mice)
Description: as §3

in vivo [8] = assay: in vivo; set-up: species or system mice; settings: mouse, sc, 20 mg/kg
From the text: (§4) Plasma samples were adequately diluted with sterile water and assayed according to the usual agar diffusion method, using Bacillus subtilis ATCC 6633 as the test organism.

in vivo [9] = assay: in vivo; set-up: species or system rats; settings: rat, sc, 20 mg/kg
From the text: as §4

in vivo [10] = assay: in vivo; set-up: species or system dogs; settings: dog, sc, 20 mg/kg
From the text: as §4

physchem = assay type: physicochemical; settings: for half-life: reconstituted gastric juice, pH 1.3
From the text: Antibiotic RIT D-2214 can be colorimetrically assayed by the classical hydroxylamine method of penicillin assay. […] Recoveries were estimated according to the hydroxylamine assay method.

[11] = stability in water solution; assay type: physicochemical; settings: 4° C, not more than 7 days
[12] = test system: Staphylococcal preparation of β-lactamase; assay: destruction by Staphylococcal preparation of β-lactamase (Penase Leo); assay type: biochemical
[13] = test system: Gram-positive and Gram-negative bacteria; assay: inhibitory activity against growth of bacteria; assay type: cell-based; settings: Gram-positive and Gram-negative bacteria
Description: as §1, §2

[14] = test system: Gram-positive and Gram-negative microorganisms; assay: in vivo activity against microorganisms; set-up: species or system mice
Description: as §3

Alcaligenes viscolactis = assay: agar-diffusion method; assay type: cell-based
From the text: The testing of samples can be carried out by the well known agar-diffusion method on Petri dishes or on plates.

[15] = broth dilution, about 20 hours at 35° C, tested as monoammonium salt

With `CC1(C)S[C@@H]2[C@H](NC(=O)CSC[C@@H](N)C(=O)O)C(=O)N2[C@H]1C(=O)O` [RIT D-2214, 6-(D)-{[(2-amino-2-carboxy)-ethylthio]-acetamido}-penicillanic acid] the MIC (Corynebacterium xerosis) was < 0.02 µg/mL, the MIC (Shigella sonnei) was 20 µg/mL and the MIC (Staphylococcus aureus) was 1.25 µg/mL. For the same compound, the MIC [1] was 80 µg/mL, the MIC (Bacillus subtilis) was 0.3 µg/mL and the MIC (Escherichia coli; 20 h) was 1.25 µg/mL (≈ 3.31 µM). The MIC (E. coli Pen. resistant) was 80 µg/mL, the MIC (Alcaligenes faecalis) was 1.6 µg/mL and the MIC (Aerobacter aerogenes; 20 h) was 1.25 µg/mL (≈ 3.31 µM). For the same compound, the MIC (Klebsiella pneumoniae) was 80 µg/mL, the MIC (Salmonella paratyphi) was 1.25 µg/mL (≈ 3.31 µM) and the MIC (Salmonella meleagridis) was 0.6 µg/mL. It also gave an MIC (Salmonella typhi) of 0.6 µg/mL (≈ 1.59 µM), an MIC (Salmonella typhimurium) of 40 µg/mL and an MIC (Salmonella panama) of 40 µg/mL. It also gave an MIC (Salmonella anatum) of 0.6 µg/mL, an MIC (Proteus mirabilis; 20 h) of 1.25 µg/mL (≈ 3.31 µM) and an MIC (Proteus morganii) of 40 µg/mL. The MIC (Vibrio el tor) was 0.6 µg/mL, the MIC (Brucella abortus) was 20 µg/mL (≈ 53 µM) and the MIC [2] was 0.6 µg/mL. The MIC (Pseudomonas aeruginosa) was 80 µg/mL, the ED50 (Escherichia coli 47) was < 10 mg/kg and the ED50 (Escherichia coli 9) was 10.9 mg/kg. For the same compound, the ED50 ([3]; oral with calcium carbonate) was 25.3 mg/kg, the ED50 ([3]; sc, s.c.) was < 11 mg/kg and the ED50 (Proteus mirabilis 11) was < 10 mg/kg. The ED50 [4] was 13 mg/kg, the ED50 [5] was 13.5 mg/kg and the ED50 (Salmonella panama 20) was < 10 mg/kg. For the same compound, the ED50 (Shigella flexneri 25) was 52.5 mg/kg, the ED50 [6] was < 11 mg/kg and the ED50 [7] was 22.7 mg/kg. For the same compound, the concentration at 5 min (in vivo [8]) was 13000 ng/mL, the concentration at 0.25 h (in vivo [8]) was 15000 ng/mL and the concentration at 0.5 h (in vivo [8]) was 10000 ng/mL. For the same compound, the concentration at 1 h (in vivo [8]) was 6000 ng/mL, the concentration at 5 min (in vivo [9]) was 12000 ng/mL and the concentration at 0.25 h (in vivo [9]) was 23000 ng/mL. It also gave a concentration at 0.5 h (in vivo [9]) of 17000 ng/mL, a concentration at 1 h (in vivo [9]) of 12000 ng/mL and a concentration at 2 h (in vivo [9]) of 7500 ng/mL. The concentration at 0.25 h (in vivo [10]) was 18000 ng/mL, the concentration at 0.5 h (in vivo [10]) was 23000 ng/mL and the concentration at 1 h (in vivo [10]) was 22500 ng/mL. For the same compound, the concentration at 2 h (in vivo [10]) was 9000 ng/mL, the “stability under acid conditions” value (physchem) was “relatively stable under acid conditions” and the half-life (physchem) was 25 min. The “stability in water solution” value [11] was “relatively stable”, the “destruction by β-lactamase” value [12] was “rapidly destroyed” and the “inhibitory activity against the growth of bacteria” value [13] was “exhibits inhibitory activity”. For the same compound, the in vivo activity ([14]; Gram-positive and Gram-negative microorganisms) was “exhibits in vivo activity”, the “efficacy when administered orally” value ([14]; oral) was “less advantageous when administered orally” and the “sensitivity of Alcaligenes viscolactis” value (Alcaligenes viscolactis) was “very high sensitivity”.
With `CC1(C)S[C@@H]2[C@H](NC(=O)CSC[C@H](N)C(=O)O)C(=O)N2[C@H]1C(=O)O` [RIT L-2214] the MIC (Shigella sonnei) was 80 µg/mL, the MIC (Staphylococcus aureus) was 1.25 µg/mL and the MIC [1] was 80 µg/mL. For the same compound, the MIC (Bacillus subtilis) was 0.31 µg/mL, the MIC (Escherichia coli; [15]) was 40 µg/mL and the MIC (E. coli Pen. resistant) was 80 µg/mL. It also gave an MIC (Aerobacter aerogenes; [15]) of 20 µg/mL, an MIC (Klebsiella pneumoniae) of 80 µg/mL and an MIC (Salmonella paratyphi) of 20 µg/mL (≈ 53 µM). It also gave an MIC (Proteus mirabilis; [15]) of 20 µg/mL, an MIC (Proteus morganii) of 80 µg/mL and an MIC (Pseudomonas aeruginosa) of 80 µg/mL.
In the case of `CC1(C)S[C@@H]2[C@H](NC(=O)CSC[C@@H](N)C(=O)O)C(=O)N2[C@H]1C(=O)O` [monoammonium salt of antibiotic RIT D-2214], the “inhibitory activity against the growth of bacteria” value [13] is reported as “strong activity”.
Work on `CC1(C)S[C@@H]2[C@H](NC(=O)Cc3ccccc3)C(=O)N2[C@H]1C(=O)O` [penicillin G, reference compound] yielded a half-life (physchem) of 7 min.
